Source: ChEMBL document CHEMBL6182830, “Hepatocyte targeting via the asialoglycoprotein receptor” (RSC Med Chem, 2025)

test: Binding affinity to human ASGR assessed as dissociation constant by SPR analysis

Kd [µM] | SMILES
7.2 | CC(=O)N[C@H]1[C@H]2OC[C@](CO)(O2)[C@H](O)[C@@H]1O
14.8 | C[C@@H]1O[C@H](CO)[C@H](O)[C@H](O)[C@H]1NC(=O)C(F)(F)F
40.4 | CC(=O)N[C@@H]1[C@@H](O)[C@@H](O)[C@@H](CO)O[C@H]1O
1.8 | O=C(N[C@H]1[C@H]2OC[C@](CO)(O2)[C@H](O)[C@@H]1O)C(F)(F)F
1.2 | COc1cccc(-n2cc(C[C@H]3O[C@H](OCC(O)CNCc4ccccc4)[C@H](NC(=O)C(F)(F)F)[C@@H](O)[C@H]3O)nn2)c1 (stereo partly drawn)
1.6 | C=CCO[C@H]1O[C@H](CN=[N+]=[N-])[C@H](O)[C@H](O)[C@H]1NC(C)=O
880 | CO[C@@H]1O[C@H](CO)[C@H](O)[C@H](O)[C@H]1O
41 | CC(=O)N[C@@H]1[C@@H](O)[C@@H](O)[C@@H](CO)O[C@H]1C
